Assays:
[1] = molecular target: T1, recombinant form of human tPA (Homo sapiens, UniProt P00750); assay: In vitro tPA catalytic activity assay (initial rate method, chromogenic substrate); type: biochemical; details: for catalytic efficiency of tPA: single gas alone at 25 vol %
T1 construct: purchased Boehringer Ingelheim Actilyse
Description: […] The recombinant form of human tPA (Actilyse®; Boehringer Ingelheim, Ingelheim am Rhein, Germany) and its specific chromogenic substrate methylsulfonyl-D-phenyl-glycil-arginine-7-amino-4-methylcoumarin acetate (Spectrozyme® XF, product 444; American Diagnostica, Stamford, CT) were diluted separately in 1 ml distilled water in 1.5-ml sterile tubes. […] The catalytic efficiency of tPA was assessed by the initial rate method by incubating 50 μl tPA with 50 μl substrate in a spectrofluorometer microplate reader set at 37° C.
(§1) Xenon, argon, nitrogen, and oxygen were purchased from Air Liquide Sante (Paris, France). Medical air composed of 75 vol % nitrogen and 25 vol % oxygen, and xenon and argon mixtures containing 37.5 vol % xenon and 37.5 vol % argon (Xe—Ar-37.5), 25 vol % xenon and 25 vol % argon (Xe—Ar-25) or 15 vol % xenon and 15 vol % argon (Xe—Ar-15)—with 25 vol % oxygen and the remainder being nitrogen when needed—were obtained using computer-driven gas mass flowmeters, and an oxygen analyzer to check that the gas mixtures used were not hypoxic.

elastase = elastase (Sus scrofa, UniProt P00772); details: cited from earlier work; for binding to the active site of elastase: serine protease used as a model of tPA
tPA and rtPA = tPA and rtPA (Homo sapiens, UniProt P00750); details: cited from earlier work
[2] = test system: rats injected with intracerebral NMDA; assay: NMDA-induced neuronal death in vivo (brain damage after intracerebral injection of NMDA); design: species or system rat
Description: The effects of gas mixtures containing xenon and argon on the […] were assessed as described previously. On the day of surgery, rats were anesthetized with 1.5% halothane in oxygen alone in an anesthesia box and mounted on a stereotactic apparatus with the incisor bar set at 3.9 mm below the horizontal zero. A burr hole was drilled and a micropipette (less than […] at the tip) was lowered into the right striatum (anterior, 0.6 mm; lateral, 3.0 mm; ventral, 5.8 mm, from bregma) to allow injection of 70 nmol of NMDA in 1 μl of phosphate buffered solution (pH 7.4) over a 2-min period. After an additional 5-min period, the micropipette was removed, and the wounds were then sutured. During surgery, body temperature was kept at 37 ±0.5° C. with a feedback-controlled thermostatic heating pad (Harvard Apparatus Limited, Edenbridge, UK). The animals woke up in their home cage after about 10 min, where they were given free access to food and water. Sixty minutes after NMDA administration, rats were treated with medical air or gas mixtures containing xenon and argon (see gas pharmacological section). The number of rats per group was n=7-11.
as §1

[3] = test system: brain slices exposed to OGD; assay: Lactate dehydrogenase (LDH) release induced by oxygen-glucose deprivation (OGD) in brain slices; type: cell-based, rat
Description: Rats were killed by decapitation under halothane anesthesia. The brains were removed and placed in ice-cold freshly prepared artificial cerebrospinal fluid (aCSF). Coronal brain slices (400 μm thickness) including the striatum (anteriority: from +1.2 to +2 mm from bregma) were cut using a tissue chopper (Mickie Laboratory Engineering Co., Gomshall, Surrey, UK).
The effects of gas mixtures containing xenon and argon on the release of lactate dehydrogenase (LDH) induced by OGD were assessed as described previously. Before being used, brain slices were transferred into individual vials with 1.3 ml of freshly prepared oxygenated aCSF containing 120 mM NaCl, 2 mM KCl, 2 mM CaCl2, 26 mM NaHCO3, 1.19 mM MgSO4, 1.18 mM KH2PO4, 11 mM d-glucose, and 30 mM HEPES and allowed to recover at room temperature for 45 min. Then, brain slices were placed at 36±0.5° C. into individual vials containing 1.3 ml of freshly prepared aCSF, saturated, and continuously bubbled with 100% oxygen (25 ml/min per vial). After a 30-min period, the incubation aCSF solution was renewed with oxygenated aCSF maintained at 36° C., and the slices were then incubated for 1 h to allow recording of basal levels of LDH. Whereas control slices were incubated for an additional 20-min period in the same conditions, those corresponding to the ischemic group were incubated in a glucose-free solution, saturated, and continuously bubbled with 100% nitrogen (OGD slices). After this 20-min period of OGD, to mimic reperfusion and treatment, the medium was replaced in all groups with freshly prepared aCSF solution, saturated and continuously bubbled with either medical air or gas mixtures containing xenon and argon in volume proportions as described below (see gas pharmacology section; n=20-36).
Xenon, argon, nitrogen, and oxygen were purchased from Air Liquide Sante (Paris, France). […]

[4] = cited from earlier work
[5] = test system: rat model of thromboembolic stroke; details: intraischemic administration; cited from earlier work

T1 sequence (P00750 36-562): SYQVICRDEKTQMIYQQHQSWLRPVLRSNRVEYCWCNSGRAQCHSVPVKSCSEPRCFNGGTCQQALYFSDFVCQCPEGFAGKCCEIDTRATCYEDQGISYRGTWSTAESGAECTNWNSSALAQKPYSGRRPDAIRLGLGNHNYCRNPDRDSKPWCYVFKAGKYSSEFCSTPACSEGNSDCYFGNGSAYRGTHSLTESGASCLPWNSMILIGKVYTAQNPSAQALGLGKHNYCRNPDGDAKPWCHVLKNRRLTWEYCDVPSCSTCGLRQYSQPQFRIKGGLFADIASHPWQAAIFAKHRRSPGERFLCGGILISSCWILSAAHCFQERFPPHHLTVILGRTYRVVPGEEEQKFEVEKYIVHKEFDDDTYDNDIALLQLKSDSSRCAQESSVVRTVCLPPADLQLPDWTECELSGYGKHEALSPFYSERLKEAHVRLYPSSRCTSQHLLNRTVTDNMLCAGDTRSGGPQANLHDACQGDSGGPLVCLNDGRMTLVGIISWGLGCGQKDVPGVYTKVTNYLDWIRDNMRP
elastase, sequence (P00772 27-266): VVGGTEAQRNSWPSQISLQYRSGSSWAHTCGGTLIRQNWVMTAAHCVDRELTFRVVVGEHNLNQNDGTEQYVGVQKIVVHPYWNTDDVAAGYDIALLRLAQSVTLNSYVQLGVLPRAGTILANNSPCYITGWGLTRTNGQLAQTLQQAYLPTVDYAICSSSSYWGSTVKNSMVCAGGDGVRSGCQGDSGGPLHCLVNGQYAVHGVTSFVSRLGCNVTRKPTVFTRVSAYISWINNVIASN
tPA and rtPA, sequence (P00750 36-562): as the sequence (P00750 36-562) above

Question: Which results are given for [Ar] [argon]?
Answer: tPA-induced catalytic activity ([1]; argon alone, concentration not given): has no effect; catalytic efficiency of tPA [1]: decreased it significantly; affinity for elastase relative to xenon (elastase): lower affinity than xenon; binding to the active site of elastase (elastase): bind to the active site of elastase; inhibiting action on the thrombolytic properties of tPA and rtPA (tPA and rtPA; neuroprotective concentrations of 50 vol % and above): shows no inhibiting action; NMDA-induced brain damage ([2]; single gas alone at 15 vol %): also had no effect by itself on NMDA-induced brain damage; NMDA-induced brain damage ([2]; single gas alone at 25 vol %): had no effect by itself on NMDA-induced brain damage; OGD-induced LDH release ([3]; single gas alone at 15 vol %): also had no effect by itself on OGD-induced LDH release; OGD-induced LDH release ([3]; single gas alone at 25 vol %): had no effect by itself on OGD-induced LDH release

Question: What does the source list for [Xe] [xenon]?
Answer: catalytic efficiency of tPA [1]: had no effect on the catalytic efficiency of tPA; neuroprotection ([4]; subanesthetic concentrations of 37.5 vol % or 50 vol %): provided neuroprotection; possible therapeutic window of neuroprotection ([4]; xenon alone): about 8 h; binding to the active site of elastase (elastase): bind to the active site of elastase; inhibition of tPA and rtPA (tPA and rtPA; xenon alone): potent inhibitor of tPA and rtPA; NMDA-induced brain damage ([2]; single gas alone at 15 vol %): had no effect by itself on NMDA-induced brain damage; OGD-induced LDH release ([3]; single gas alone at 15 vol %): had no effect by itself on OGD-induced LDH release; tPA-induced thrombolysis and subsequent reduction of ischemic brain damage [5]: dose-dependently inhibits

Reference: patent US20210386777A1, “GAS MIXTURES CONTAINING LOW CONC[…] XENON AND ARGON PROVIDE NEURO[…] INHIBITING THE CATALYTIC ACTIVITY OF TH[…]” ([…], priority 2017, published 2021)
